The values below come from US12612405B2, “Crystalline form of 1-(8-Bromopyrido[2,3-E][1,2,4]triazolo[4,3-a]pyrazin-4-Yl)-Nmethylazetidin-3-amine hydrogen sulfate monohydrate” (JW PHARMACEUTICAL CORPORATION, priority 2021, dated 2026).

A short description of series [1]: Solubility in common crystallization solvents. The settings on record: common crystallization solvents including alcohols.
Series [2] in a line: Interconversions between the crystalline forms (stability at rt, in suspension, during drying). It counts as physicochemical. The settings on record: for stability during drying: drying process; for solid phase stability / transition at room temperature: rt, ambient conditions; for stability under conditions / suspensions with high water content: high amounts of water. An excerpt:
The table below summarizes interconversions between the different forms and other issues which may be relevant to their use in pharmaceutical compositions: […]

Series [3] is described as follows: Solubility according to Ph. Eur. and USP. It counts as physicochemical. The text has this: The solubility of form B according to Ph.
Series [4] in a line: Dynamic Vapor Sorption (DVS). It counts as physicochemical. The settings on record: for hygroscopicity classification: according to Ph. Eur. The procedure:
Instrument: DVS Advantage
Methods: About 5 mg of the substance was added into Al pan and exposed to stepwise RH changes during two consecutive cycles according to; 20-30-40-50-60-70-80-70-60-50-40-30-20-10-0-10-20-30-40-50-60-70-80-90-80-70-60-50-40-30-20-10-0/RH using open loop mode. The experiments were performed using a gas flow rate of 200 ml/min and at 25° C. The dm/dt criteria applied was 0.001 weight-%/min during a 5 minutes window, with a maximum allowed time of 150 minutes for all steps, except for the steps at 0% RH which had no criteria but were set to 6 h.

A short description of series [5]: Thermal stability by TGA / DSC. It counts as physicochemical. As to the method: TGA experiments were conducted using a TGA550 instrument from TA Instruments. About 1-10 mg of sample was loaded into a ceramic pan for the measurements. The sample temperature was ramped from 25 to 500° C. at 10° C./min. Nitrogen was used as the purge gas at a flow rate of 50 mL/min.
DSC analyses were carried out on a TA Instruments Q20 Differential Scanning Calorimeter. Accurately weighed samples were placed in crimped aluminum pans. Each sample was heated under nitrogen at a rate of 10° C./minute to a maximum of 300° C. Indium metal was used as the calibration standard.

For a further series, the target named is histamine 4 receptor (Homo sapiens, UniProt Q9H3N8). The settings on record: cited from earlier work.
Series [6] concerns inflammatory cells such as mast cells and eosinophils. The settings on record: cited from earlier work.

Entries after “also recorded” stand apart in the source; their conditions may differ.

Chain of histamine 4 receptor (Q9H3N8 whole entry): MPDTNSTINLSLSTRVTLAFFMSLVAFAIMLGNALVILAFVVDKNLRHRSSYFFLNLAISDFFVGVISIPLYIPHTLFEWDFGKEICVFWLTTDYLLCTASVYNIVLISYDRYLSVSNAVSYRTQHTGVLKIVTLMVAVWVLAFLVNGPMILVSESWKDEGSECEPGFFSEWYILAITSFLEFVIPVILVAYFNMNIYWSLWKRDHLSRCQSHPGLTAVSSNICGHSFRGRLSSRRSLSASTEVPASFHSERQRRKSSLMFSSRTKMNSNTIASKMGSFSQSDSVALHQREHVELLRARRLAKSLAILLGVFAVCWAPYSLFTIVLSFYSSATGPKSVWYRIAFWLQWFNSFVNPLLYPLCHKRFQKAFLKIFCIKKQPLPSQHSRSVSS

For `CNC1CN(c2nc3ncc(Br)cc3n3cnnc23)C1.O=S(=O)(O)O` [hydrogen sulfate salt, 1-(8-bromopyrido[2,3-e][1,2,4]triazolo[4,3-a]pyrazin-4-yl)-N-methylazetidin-3-amine hydrogen sulfate], the “solubilities in common solvents used for crystallizations” value in series [1] is listed as “very low solubilities”.
As to `CNC1CN(c2nc3ncc(Br)cc3n3cnnc23)C1.O=S(=O)(O)O` [Form K, 1-(8-bromopyrido[2,3-e][1,2,4]triazolo[4,3-a]pyrazin-4-yl)-N-methylazetidin-3-amine hydrogen sulfate], in series [2] (hydrogen sulfate), the stability during drying result is “Form K converts to form C in drying processes” and the “solid phase stability / transition at room temperature” value (“solid phase stability / transition” below) is given as “Form K converts to form C at room temperature”.
In the case of `CNC1CN(c2nc3ncc(Br)cc3n3cnnc23)C1.O=S(=O)(O)O` [Form I, 1-(8-bromopyrido[2,3-e][1,2,4]triazolo[4,3-a]pyrazin-4-yl)-N-methylazetidin-3-amine hydrogen sulfate], in series [2] (hydrogen sulfate), the stability during drying entry was “not stable during drying at room temperature where it; also recorded: converts to form K, which then converts to form C at room; also recorded: product as it converts to form C in drying processes”. For the same compound, in series [2], the “stability under conditions / suspensions with high water content” value is given as “the crystal structure. The dihydrate form I is the most stable”.
In the case of `CNC1CN(c2nc3ncc(Br)cc3n3cnnc23)C1.O.O=S(=O)(O)O` [Form B, 1-(8-bromopyrido[2,3-e][1,2,4]triazolo[4,3-a]pyrazin-4-yl)-N-methylazetidin-3-amine hydrogen sulfate monohydrate], the solubility result is on record as “insoluble” in series [3] (1-4-dioxane); “insoluble” in series [3] (1-propanol); “insoluble” in series [3] (2-propanol); “insoluble” in series [3] (acetone); “insoluble” in series [3] (chloroform); “Soluble” in series [3] (dimethyl sulfoxide). Moreover, the solubility entry in series [3] (dimethylformamide) is reported as “slightly soluble”; in series [3] (ethanol) it was “insoluble”; in series [3] (ethyl acetate), “insoluble”; in series [3] (isopropyl acetate), “insoluble”; in series [3] (methanol), “very slightly soluble”; in series [3] (methyl tert-butyl ether), “insoluble”. Moreover, the solubility entry in series [3] (n-butyl acetate) is “insoluble”; in series [3] (tert-amyl alcohol), “insoluble”; in series [3] (tetrahydrofuran) it was “insoluble”; in series [3] (water), “sparingly soluble”; in series [3] (xylene), “insoluble”. Besides, in series [4] (25° C., between 10 and 80% RH), the “water absorbed (DVS)” value was “By (DVS) it was demonstrated that form B absorbs 0.2%”. Besides, the hygroscopicity classification entry in series [4] (DVS) was “considered non-hygroscopic according to Ph. Eur. 5. (the increase in mass of a drug substance between about 0% to 80% relative humidity is less than 0.2% by weight)”.
For the compound `CNC1CN(c2nc3ncc(Br)cc3n3cnnc23)C1.O=S(=O)(O)O` [Form D, 1-(8-bromopyrido[2,3-e][1,2,4]triazolo[4,3-a]pyrazin-4-yl)-N-methylazetidin-3-amine hydrogen sulfate], the “solid phase stability / transition” value in series [2] (hydrogen sulfate) is reported as “solid phase transformation to form C”. For the same compound, in series [2] (suspension formulations, hydrogen sulfate), the “stability in suspension formulations” value is recorded as “converts to forms F, I, or N depending on the conditions”.
For the compound `CNC1CN(c2nc3ncc(Br)cc3n3cnnc23)C1.O=S(=O)(O)O` [Form M, 1-(8-bromopyrido[2,3-e][1,2,4]triazolo[4,3-a]pyrazin-4-yl)-N-methylazetidin-3-amine hydrogen sulfate], the “broad endothermic event due to water loss and breakdown of the crystal lattice” value in series [5] was 44 °C. Moreover, the “temperature of weight loss (TGA curve)” value in series [5] (TGA) was 50 °C. Also, in series [5] (hydrogen sulfate), the thermal stability result is “Form M is a monohydrate but loses water and melts at very; also recorded: this low thermal stability form M is not suitable for”.
Turning to `CNC1CN(c2nc3ncc(Br)cc3n3cnnc23)C1.O=S(=O)(O)O` [Form F, 1-(8-bromopyrido[2,3-e][1,2,4]triazolo[4,3-a]pyrazin-4-yl)-N-methylazetidin-3-amine hydrogen sulfate], in series [2] (hydrogen sulfate), the stability during drying result is reported as “Converts to another form during drying process. The water can; also recorded: very easily be dried off” and the “stability under conditions / suspensions with high water content” value is “with high water content form F converts to form I”.
On to `CNC1CN(c2nc3ncc(Br)cc3n3cnnc23)C1` [1-(8-bromopyrido[2,3-e][1,2,4]triazolo[4,3-a]pyrazin-4-yl)-N-methylazetidin-3-amine], for which, on histamine 4 receptor, the “histamine 4 receptor inhibitory effect” value is listed as “strong histamine 4 receptor inhibitory effect”. Besides, the “solubilities in common solvents used for crystallizations” value in series [1] was “very low solubilities”. In addition, in series [6], the “effect against histamine induced infiltration of inflammatory cells” value is “suppressive effects”.
Take `CNC1CN(c2nc3ncc(Br)cc3n3cnnc23)C1.O=S(=O)(O)O` [Form A, 1-(8-bromopyrido[2,3-e][1,2,4]triazolo[4,3-a]pyrazin-4-yl)-N-methylazetidin-3-amine hydrogen sulfate]: the “solid phase stability / transition” value in series [2] (hydrogen sulfate) is listed as “that undergoes solid phase transition to form B at rt over time”.
Consider `CNC1CN(c2nc3ncc(Br)cc3n3cnnc23)C1.O=S(=O)(O)O` [Form C, 1-(8-bromopyrido[2,3-e][1,2,4]triazolo[4,3-a]pyrazin-4-yl)-N-methylazetidin-3-amine hydrogen sulfate], for which the “phase transition when humidity increased to 90%” value in series [4] (DVS, humidity increased to 90%) was “observed and partial phase transition to the non-stoichiometric”. Further, in series [4] (DVS), the hygroscopicity classification result was “is just in the range for being slightly hygroscopic. DVS”. For the same compound, in series [4] (increased relative humidity), the “water uptake at increased relative humidity” value is listed as “The anhydrate significantly takes up water at increased”. The “stability in liquid environment containing more than 20% water” value in series [2] (liquid environment, more than 20% water) is 20% water form C will not be stable and therefore can be.
